Data from the NIST ThermoML archive (doi:10.1016/j.fluid.2008.02.001).
Several values for one entry are separate records, joined by “and”; a condition that tells them apart may be missing. Equal entries are not always repeated. ± gives the expanded uncertainty stated by the source.

Conditions: Liquid, Transpiration method

CCC(C)(C)OC(C)=O [1,1-dimethylpropyl acetate]
Conditions	vapor or sublimation pressure [kPa]
273.7 K	0.3855 ± 0.029
274 K	0.4017 ± 0.03
275.5 K	0.4449 ± 0.032
277.5 K	0.5063 ± 0.036
278.6 K	0.5244 ± 0.037
279.5 K	0.5659 ± 0.04
281.6 K	0.6399 ± 0.045
283.5 K	0.716 ± 0.051
283.6 K	0.7353 ± 0.052
286.6 K	0.878 ± 0.062
288.4 K	0.9539 ± 0.067
289.7 K	1.053 ± 0.074
292.7 K	1.218 ± 0.086
293.5 K	1.336 ± 0.095
295.8 K	1.492 ± 0.1
298.4 K	1.698 ± 0.13
298.8 K	1.785 ± 0.13
301.9 K	2.079 ± 0.15
303.4 K	2.33 ± 0.16
304.9 K	2.418 ± 0.17
307.9 K	2.829 ± 0.21
308.4 K	2.994 ± 0.22

CCCC(=O)OC(C)(C)CC [1,1-dimethylpropyl butanoate]
Conditions	vapor or sublimation pressure [kPa]
274.5 K	0.04772 ± 0.0035
276.5 K	0.05746 ± 0.0041
278.2 K	0.06508 ± 0.0046
278.6 K	0.06692 ± 0.0047
280.6 K	0.07832 ± 0.0056
282.6 K	0.09058 ± 0.0065
283.3 K	0.09732 ± 0.0069
285.6 K	0.1128 ± 0.0081
288.2 K	0.1456 ± 0.01
288.7 K	0.1441 ± 0.01
291.7 K	0.1788 ± 0.013
293.2 K	0.2021 ± 0.014
294.8 K	0.22 ± 0.016
297.4 K	0.2678 ± 0.019
298.2 K	0.2935 ± 0.021
300.4 K	0.3315 ± 0.024
303.2 K	0.4074 ± 0.029
303.5 K	0.402 ± 0.028
306.5 K	0.4906 ± 0.035
308.2 K	0.5588 ± 0.04
309.5 K	0.5946 ± 0.042

CCC(=O)OC(C)(C)CC [1,1-dimethylpropyl propanoate]
Conditions	vapor or sublimation pressure [kPa]
273.9 K	0.1147 ± 0.0082
274.9 K	0.123 ± 0.0088
276.9 K	0.1423 ± 0.01
278.9 K	0.1651 ± 0.012
281 K	0.1902 ± 0.013
283 K	0.2208 ± 0.016
286 K	0.2725 ± 0.019
289.1 K	0.3316 ± 0.024
292.2 K	0.4061 ± 0.029
295.2 K	0.4966 ± 0.035
298.2 K	0.5971 ± 0.042
301.2 K	0.7239 ± 0.051
304.3 K	0.8484 ± 0.06
307.4 K	1.025 ± 0.072
310.4 K	1.237 ± 0.087

CC(C)COC(=O)C(C)C [2-methylpropyl 2-methylpropanoate]
Conditions	vapor or sublimation pressure [kPa]
274.2 K	0.1054 ± 0.0076
276.2 K	0.1253 ± 0.009
278.2 K	0.1479 ± 0.011
283.2 K	0.2118 ± 0.015
288.2 K	0.2962 ± 0.021
293.2 K	0.4346 ± 0.031
298.2 K	0.6003 ± 0.043
303.3 K	0.8274 ± 0.059
308.4 K	1.137 ± 0.08
311.2 K	1.363 ± 0.096
313.4 K	1.497 ± 0.11
316.2 K	1.851 ± 0.13
319.2 K	2.224 ± 0.16

CCCCOC(=O)C(C)CC (centres undefined) [butanoic acid, 2-methyl-, butyl ester]
Conditions	vapor or sublimation pressure [kPa]
274.2 K	0.02305 ± 0.0016
276.2 K	0.02587 ± 0.0019
278.2 K	0.03181 ± 0.0023
280.2 K	0.0362 ± 0.0026
283.2 K	0.04723 ± 0.0034
288.1 K	0.06951 ± 0.005
293.1 K	0.1043 ± 0.0075
298.1 K	0.1517 ± 0.011
303.2 K	0.2142 ± 0.015
308.2 K	0.3099 ± 0.022
313.3 K	0.4305 ± 0.031
316.2 K	0.5454 ± 0.039
319.2 K	0.6694 ± 0.047

CCCCOC(=O)C(C)(C)C [butyl 2,2-dimethylpropanoate]
Conditions	vapor or sublimation pressure [kPa]
273.6 K	0.0462 ± 0.0035
273.9 K	0.04812 ± 0.0035
274.7 K	0.0517 ± 0.0037
276.5 K	0.06076 ± 0.0043
278.4 K	0.06784 ± 0.0049
282.6 K	0.09472 ± 0.0068
283.2 K	0.09954 ± 0.0071
285.6 K	0.1239 ± 0.0088
288.3 K	0.1447 ± 0.011
288.7 K	0.1514 ± 0.011
291.7 K	0.1872 ± 0.013
293.2 K	0.2073 ± 0.015
294.8 K	0.2343 ± 0.017
297.8 K	0.2886 ± 0.02
298.1 K	0.2847 ± 0.02
300.8 K	0.3473 ± 0.025
303.3 K	0.4149 ± 0.029
303.9 K	0.429 ± 0.03
307 K	0.5176 ± 0.036
308.3 K	0.5552 ± 0.039
309 K	0.596 ± 0.043
313.3 K	0.7473 ± 0.053

COC(=O)CC(C)(C)C [methyl 3,3-dimethylbutanoate]
Conditions	vapor or sublimation pressure [kPa]
273.9 K	0.3046 ± 0.022
274.4 K	0.3169 ± 0.023
275.9 K	0.3519 ± 0.025
277.4 K	0.3954 ± 0.028
278.7 K	0.436 ± 0.031
279.5 K	0.4645 ± 0.033
281.5 K	0.5226 ± 0.037
282.5 K	0.5675 ± 0.04
283.3 K	0.5937 ± 0.042
285.5 K	0.6878 ± 0.049
288.2 K	0.8223 ± 0.057
288.6 K	0.8158 ± 0.057
291.6 K	0.9977 ± 0.071
293.2 K	1.131 ± 0.08
294.6 K	1.195 ± 0.084
297.7 K	1.436 ± 0.11
298.2 K	1.533 ± 0.11
301.8 K	1.854 ± 0.13
303.2 K	2.042 ± 0.14
303.8 K	2.089 ± 0.15
306.9 K	2.498 ± 0.18
308.2 K	2.737 ± 0.19
309 K	2.783 ± 0.19
313.2 K	3.591 ± 0.25

CCCC(=O)OC [methyl butanoate]
Conditions	vapor or sublimation pressure
274.3 K	1.06 ± 0.077 kPa
276.4 K	1.292 ± 0.092 kPa
278.2 K	1.397 ± 0.098 kPa
279.4 K	1.492 ± 0.1 kPa
281.3 K	1.627 ± 0.12 kPa
281.6 K	1.705 ± 0.13 kPa
283.4 K	1.854 ± 0.15 kPa
283.7 K	1.965 ± 0.16 kPa
285.5 K	2.102 ± 0.17 kPa
285.8 K	2.24 ± 0.18 kPa
288.3 K	2.537 ± 0.18 kPa and 2.523 ± 0.18 kPa and 2.466 ± 0.17 kPa
290.3 K	2.927 ± 0.21 kPa
291.2 K	3.085 ± 0.22 kPa and 2.937 ± 0.21 kPa
292.2 K	3.214 ± 0.23 kPa
293.2 K	3.382 ± 0.24 kPa
294.3 K	3.717 ± 0.27 kPa
295.3 K	4.065 ± 0.29 kPa
298.1 K	4.479 ± 0.32 kPa
300.2 K	5.224 ± 0.37 kPa
301.2 K	5.303 ± 0.37 kPa
303.2 K	5.697 ± 0.4 kPa

CCCCCCC(=O)OC [methyl heptanoate]
Conditions	vapor or sublimation pressure [kPa]
278.1 K	0.03453 ± 0.0025
283.5 K	0.05365 ± 0.0038
286.4 K	0.06767 ± 0.0048
288.3 K	0.0791 ± 0.0056
290.3 K	0.09122 ± 0.0065
293.2 K	0.1164 ± 0.0083
296.2 K	0.1424 ± 0.01
298.2 K	0.1642 ± 0.012
300.3 K	0.1892 ± 0.013
303.1 K	0.2326 ± 0.017
306.1 K	0.2838 ± 0.02
308.2 K	0.3321 ± 0.024
310.2 K	0.3804 ± 0.027
313.2 K	0.4658 ± 0.033

CCCCCC(=O)OC [methyl hexanoate]
Conditions	vapor or sublimation pressure
280.7 K	0.1387 ± 0.0099 kPa
283.6 K	0.1707 ± 0.012 kPa
284.6 K	0.1839 ± 0.013 kPa
286.6 K	0.2147 ± 0.015 kPa
287.6 K	0.2219 ± 0.016 kPa
289.5 K	0.2598 ± 0.018 kPa
290.5 K	0.2793 ± 0.02 kPa and 0.2693 ± 0.019 kPa
292.5 K	0.3111 ± 0.022 kPa
293.3 K	0.3367 ± 0.024 kPa
293.4 K	0.3489 ± 0.025 kPa
293.5 K	0.3435 ± 0.024 kPa
295.4 K	0.3851 ± 0.027 kPa
296.4 K	0.4226 ± 0.03 kPa
298.3 K	0.4594 ± 0.033 kPa
298.4 K	0.4697 ± 0.033 kPa
300.3 K	0.5403 ± 0.038 kPa
303.3 K	0.6501 ± 0.046 kPa
304.3 K	0.7261 ± 0.051 kPa
308.3 K	0.8925 ± 0.063 kPa
309.3 K	0.9193 ± 0.065 kPa
312.3 K	1.147 ± 0.081 kPa and 1.048 ± 0.075 kPa
316.3 K	1.458 ± 0.1 kPa
320.4 K	1.764 ± 0.12 kPa
324.4 K	2.217 ± 0.16 kPa
328.4 K	2.678 ± 0.19 kPa
331.4 K	3.178 ± 0.22 kPa

CCCCC(=O)OC [methyl pentanoate]
Conditions	vapor or sublimation pressure
274.9 K	0.3386 ± 0.024 kPa
275.2 K	0.3442 ± 0.024 kPa
278.2 K	0.4198 ± 0.03 kPa
279.4 K	0.4589 ± 0.033 kPa
281.2 K	0.5173 ± 0.037 kPa
282.6 K	0.5608 ± 0.04 kPa
284.2 K	0.6396 ± 0.047 kPa
284.3 K	0.6 ± 0.043 kPa
284.5 K	0.6182 ± 0.044 kPa
285.5 K	0.6907 ± 0.049 kPa
287.4 K	0.7539 ± 0.053 kPa
288.4 K	0.7888 ± 0.056 kPa and 0.7837 ± 0.056 kPa
288.5 K	0.8195 ± 0.059 kPa
288.7 K	0.8268 ± 0.061 kPa
289.2 K	0.873 ± 0.062 kPa
290.3 K	0.9304 ± 0.066 kPa
292.4 K	1.029 ± 0.072 kPa
293.3 K	1.09 ± 0.078 kPa
293.4 K	1.125 ± 0.081 kPa
294.5 K	1.227 ± 0.087 kPa
296.2 K	1.327 ± 0.094 kPa
297.5 K	1.511 ± 0.11 kPa
298.3 K	1.517 ± 0.11 kPa
299.2 K	1.615 ± 0.11 kPa and 1.582 ± 0.11 kPa
302.2 K	1.974 ± 0.14 kPa and 1.937 ± 0.14 kPa
305.2 K	2.273 ± 0.16 kPa
308.2 K	2.653 ± 0.19 kPa
311.2 K	3.11 ± 0.22 kPa
